# Assay results as given in patent US6602825B1, “1-Aryl-1,3,5-triazine-4-thione-2,6-diones, production thereof and use thereof as herbicides” (BASF Aktiengesellschaft, priority 2001, dated 2003).
row,melting point,SMILES
1,225 to 229 °C,"Cn1c(=S)n(C)c(=O)n(-c2cc(C(=O)O)c(Cl)cc2F)c1=O [Compound No. 28, 2-Chloro-5-(3,5-dimethyl-2,6-dioxo-4-thioxo-[1,3,5]triazinan-1-yl)-4-fluorobenzoic acid]"
2,209 to 211 °C,"Cn1c(=S)n(C)c(=O)n(-c2c(F)cc(Cl)c3ncoc23)c1=O [Compound No. 65, 3-(4-chloro-6-fluorobenzoxazol-7-yl)-1,5-dimethyl-6-thioxo-[1,3,5]triazinane-2,4-dione]"
3,156 to 159 °C,"CCc1nc2c(Cl)cc(F)c(-n3c(=O)n(C)c(=S)n(C)c3=O)c2o1 [Compound No. 66, 3-(4-chloro-2-ethyl-6-fluorobenzoxazol-7-yl)-1,5-dimethyl-6-thioxo-[1,3,5]triazinane-2,4-dione]"
